What was measured:
[1] = target: His-His-USP7 (aa208-560, [C315A]) (Homo sapiens (Human), UniProt Q93009, C315A); test: Evaluation of the inhibition of USP7 by Fluorescence Intensity (FLINT) readings; type: biochemical; conditions: 0.25 nM USP7, 60 minutes at 30° C. preincubation, 500 nM Ubiquitin-Rhodamine-110 substrate, 50% reduction in kinetic rate
Description: USP7 activity was measured using Rhodamine-110 c-terminal labelled Ubiquitin as a substrate (Viva Biosciences). Incubation with USP7 results in the release of Rhodamine-110 leading to an increase in fluorescence which can be used in the continuous measurement of USP7 activity.
The USP7 reactions were performed in a 50 μL volume, in 384 well black solid low binding plates (Corning #3575). The reaction buffer consisted of 100 mM Bicine pH 8.0, 0.01% TritonX100, 1 mM TCEP, and 10% DMSO.
0.25 nM His-His-USP7 (aa208-560, [C315A]) was incubated with compound (final concentration 10% DMSO) for 60 minutes at 30° C. The reaction was then initiated by the addition of 500 nM Ubiquitin-Rhodamine-110 substrate and the plate read every 3 minutes for 21 minutes to measure the release of Rhodamine-110. Fluorescence Intensity (FLINT) readings were measured using a […] Neo plate reader (Ex.485 nm, Em.535 nm).
The inhibition of increasing doses of compound was expressed as a percentage reduction in kinetic rate compared to the kinetic rates established between ‘DMSO only’ and ‘total inhibition’ controls (no USP7). The inhibitory concentrations that gave a 50% reduction in kinetic rate (IC50) were determined, from 11-point dose response curves, in XL-Fit using a 4-Parameter Logistic Model (Sigmoidal Dose-Response Model).

[2] = system: MM1S multiple myeloma tumour cell line; test: In vitro cytotoxicity, Microculture Tetrazolium Assay (MTT) on MM1S cells; type: cell-based; conditions: Homo sapiens, MM1.S, exposed for 96 hours, cell viability by MTT
Description: The cytotoxicity studies were carried out on the MM1S multiple myeloma tumour cell line. The cells are distributed onto microplates and exposed to the test compounds for 96 hours. The cell viability is then quantified by a colorimetric assay, the Microculture Tetrazolium Assay (Cancer Res., 1987, 47, 939-942).

Chain of His-His-USP7 (aa208-560, [C315A]) (Q93009 208-560 C315A): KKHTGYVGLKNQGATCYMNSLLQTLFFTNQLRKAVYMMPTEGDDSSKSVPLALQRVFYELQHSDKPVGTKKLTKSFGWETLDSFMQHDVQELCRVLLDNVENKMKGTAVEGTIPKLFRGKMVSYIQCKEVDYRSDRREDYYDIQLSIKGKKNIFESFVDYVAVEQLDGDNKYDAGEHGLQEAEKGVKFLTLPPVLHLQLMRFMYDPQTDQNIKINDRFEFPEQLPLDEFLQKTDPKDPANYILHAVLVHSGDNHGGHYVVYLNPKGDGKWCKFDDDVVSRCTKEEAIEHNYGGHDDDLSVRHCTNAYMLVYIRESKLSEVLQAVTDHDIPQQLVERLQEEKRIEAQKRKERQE

CN1CC[C@@H](C(=O)N2CCC(O)(Cn3cnc4c(ccn4-c4ccc(Cl)cc4)c3=O)CC2)[C@H](c2ccccc2)C1 [EXAMPLE 153, 7-(4-chlorophenyl)-3-[[4-hydroxy-1-[(3R,4R)-1-methyl-3-phenyl-piperidine-4-carbonyl]-4-piperidyl]methyl]pyrrolo[2,3-d]pyrimidin-4-one]
IC50 [1]: 0.0486 µM | IC50 [2]: 0.0747 µM

O=C([C@@H]1CCNC[C@H]1c1ccccc1)N1CCC(O)(Cn2cnc3c(cnn3-c3ccc4c(c3)OCCO4)c2=O)CC1 [EXAMPLE 165, 1-(2,3-dihydro-1,4-benzodioxin-6-yl)-5-[[4-hydroxy-1-[(3R,4R)-3-phenylpiperidine-4-carbonyl]-4-piperidyl]methyl]pyrazolo[3,4-d]pyrimidin-4-one]
IC50 [1]: 0.0196 µM | IC50 [2]: 0.3 µM

COc1ccc(-n2ccc3c(=O)n(CC4(O)CCN(C(=O)[C@@H]5CCNC[C@H]5c5ccccc5)CC4)cnc32)cc1 [EXAMPLE 135, 3-[[4-hydroxy-1-[(3R,4R)-3-phenylpiperidine-4-carbonyl]-4-piperidyl]methyl]-7-(4-methoxyphenyl)pyrrolo[2,3-d]pyrimidin-4-one]
IC50 [1]: 0.0287 µM | IC50 [2]: 0.135 µM

COc1ccc(-n2ccc3c(=O)n(CC4(O)CCN(C(=O)[C@@H]5CCN(C(=O)OC(C)(C)C)C[C@H]5c5ccccc5)CC4)cnc32)cc1 [EXAMPLE 40, tert-butyl (3R,4R)-4-[4-hydroxy-4-[[7-(4-methoxyphenyl)-4-oxo-pyrrolo[2,3-d]pyrimidin-3-yl]methyl]piperidine-1-carbonyl]-3-phenyl-piperidine-1-carboxylate]
IC50 [1]: 0.0499 µM | IC50 [2]: 0.0315 µM

O=C([C@@H]1CCNC[C@H]1c1ccccc1)N1CCC(O)(Cn2cnc3c(ccn3-c3ccccc3)c2=O)CC1 [EXAMPLE 101, 3-[[4-hydroxy-1-[(3R,4R)-3-phenylpiperidine-4-carbonyl]-4-piperidyl]methyl]-7-phenyl-pyrrolo[2,3-d]pyrimidin-4-one]
IC50 [1]: 0.0316 µM | IC50 [2]: 0.272 µM

CC(=O)N1CC[C@@H](C(=O)N2CCC(O)(Cn3cnc4c(ccn4-c4ccc(Cl)cc4)c3=O)CC2)[C@H](c2ccccc2)C1 [EXAMPLE 181, 3-[[1-[(3R,4R)-1-acetyl-3-phenyl-piperidine-4-carbonyl]-4-hydroxy-4-piperidyl]methyl]-7-(4-chlorophenyl)pyrrolo[2,3-d]pyrimidin-4-one]
IC50 [1]: 0.0742 µM

CC(C)C(=O)N1CC[C@@H](C(=O)N2CCC(O)(Cn3cnc4c(ccn4-c4ccccc4)c3=O)CC2)[C@H](c2ccccc2)C1 [EXAMPLE 177, 3-[[4-hydroxy-1-[(3R,4R)-1-(2-methylpropanoyl)-3-phenyl-piperidine-4-carbonyl]-4-piperidyl]methyl]-7-phenyl-pyrrolo[2,3-d]pyrimidin-4-one]
IC50 [1]: 0.103 µM

CC(C)(C)OC(=O)N1CC[C@@H](C(=O)N2CCC(O)(Cn3cnc4c(cnn4-c4ccc5c(c4)OCCO5)c3=O)CC2)[C@H](c2ccccc2)C1 [EXAMPLE 64, tert-butyl (3R,4R)-4-[4-[[1-(2,3-dihydro-1,4-benzodioxin-6-yl)-4-oxo-pyrazolo[3,4-d]pyrimidin-5-yl]methyl]-4-hydroxy-piperidine-1-carbonyl]-3-phenyl-piperidine-1-carboxylate]
IC50 [1]: 0.0687 µM

— patent publication US11046681B2, “Substituted piperidines for the treatment of cancer” (LES LABORATOIRES SERVIER, priority 2016, dated 2021)
